From PubChem BioAssay (NCI)
“And” between values parts separate entries of the source, which are not always exact repeats. Identical values can stand only once.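 Results reflect a 48-hour exposure of cells in 96-well plates to compound at five concentrations. GI50 = concentration required for 50% inhibition of growth. TGI: concentration producing complete growth inhibition.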

Key:
Experiment in all cases: growth of human tumour cells (NCI), 48 h
U251 CNS = test system: U251 CNS
CAKI-1 renal = test system: CAKI-1 renal
A549 NSCLC = test system: A549 NSCLC
EKVX NSCLC = test system: EKVX NSCLC
OVCAR-4 ovarian = test system: OVCAR-4 ovarian
HCT-116 colon = test system: HCT-116 colon
KM12 colon = test system: KM12 colon
SR leukemia = test system: SR leukemia
NCI/ADR-RES ovarian = test system: NCI/ADR-RES ovarian
MDA-MB-435 = test system: MDA-MB-435

## CC(=O)O[C@H]1CC2C=CC3C(CCC31)O2 (stereo not given in full)
U251 CNS
  TGI: > 100 µM
CAKI-1 renal
  TGI: > 100 µM
A549 NSCLC
  TGI: > 100 µM
EKVX NSCLC
  TGI: > 100 µM
OVCAR-4 ovarian
  TGI: > 100 µM

## COc1ccc(N(C)c2nc(Cl)nc3cnn(C)c23)cc1
U251 CNS
  GI50: < 0.01 µM
  TGI: > 100 µM
HCT-116 colon
  GI50: < 0.01 µM
  TGI: > 100 µM
CAKI-1 renal
  GI50: < 0.01 µM
  TGI: > 100 µM
A549 NSCLC
  GI50: < 0.0117 µM
  TGI: > 100 µM
EKVX NSCLC
  GI50: < 0.0178 µM
  TGI: > 100 µM
KM12 colon
  GI50: < 0.01 µM
  TGI: > 100 µM
OVCAR-4 ovarian
  GI50: 0.0795 µM
  TGI: > 100 µM
SR leukemia
  GI50: < 0.01 µM
  TGI: > 100 µM
NCI/ADR-RES ovarian
  GI50: < 0.01 µM
  TGI: > 100 µM

## COc1ccc(CCc2cc(OC)c(O)c(OC)c2)cc1
U251 CNS
  TGI: > 100 µM
HCT-116 colon
  TGI: > 100 µM
CAKI-1 renal
  TGI: > 100 µM
A549 NSCLC
  TGI: > 100 µM
EKVX NSCLC
  TGI: > 100 µM
KM12 colon
  TGI: > 100 µM
OVCAR-4 ovarian
  TGI: > 100 µM
SR leukemia
  TGI: > 100 µM

## c1ccc2c(NCCCCCCNc3cccc4ccccc34)cccc2c1
U251 CNS
  TGI: > 100 µM
HCT-116 colon
  TGI: > 100 µM
CAKI-1 renal
  TGI: > 100 µM
A549 NSCLC
  TGI: > 100 µM
EKVX NSCLC
  TGI: > 100 µM
KM12 colon
  TGI: > 100 µM
OVCAR-4 ovarian
  TGI: > 100 µM

## COC(=O)C(=O)C(C(=O)C(=O)Nc1cc(C)ccc1C)c1nc2ccc(C(=O)c3ccccc3)cc2[nH]c1=O (stereo not given)
U251 CNS
  TGI: > 100 µM
HCT-116 colon
  TGI: > 100 µM
CAKI-1 renal
  TGI: > 100 µM
A549 NSCLC
  TGI: > 100 µM
EKVX NSCLC
  TGI: > 100 µM
KM12 colon
  TGI: > 100 µM
OVCAR-4 ovarian
  TGI: > 100 µM
SR leukemia
  TGI: > 100 µM

## c1ccc(N/N=C2\NN=C(c3ccccc3)CS2)cc1
HCT-116 colon
  TGI: 15.2 µM
CAKI-1 renal
  TGI: 8.32 µM
A549 NSCLC
  TGI: 22.2 µM
EKVX NSCLC
  TGI: 37.4 µM
KM12 colon
  TGI: 53.2 µM
SR leukemia
  TGI: > 100 µM

## CCCCCCCCCCCCCB(O)O
U251 CNS
  TGI: > 100 µM
HCT-116 colon
  GI50: > 100 µM and 47.8 µM
  TGI: > 100 µM
A549 NSCLC
  GI50: > 100 µM and 48.5 µM
  TGI: > 100 µM
EKVX NSCLC
  GI50: > 100 µM and 45.5 µM
  TGI: > 100 µM
KM12 colon
  GI50: > 100 µM and 35.8 µM
  TGI: > 100 µM
OVCAR-4 ovarian
  GI50: > 100 µM and 49.3 µM
  TGI: > 100 µM

## COc1cc(/C=C2/C(=O)N(C(=O)OCc3ccccc3)C(Cc3cc(OC)c(OC)c(C)c3OC)C(=O)N2Cc2ccccc2)c(OC)c(C)c1OC (stereo not given)
U251 CNS
  TGI: > 100 µM
HCT-116 colon
  TGI: > 100 µM
CAKI-1 renal
  TGI: > 100 µM
A549 NSCLC
  TGI: > 100 µM
EKVX NSCLC
  TGI: > 100 µM
KM12 colon
  TGI: > 100 µM
OVCAR-4 ovarian
  TGI: > 100 µM
SR leukemia
  TGI: > 100 µM

## Cc1ccc2nc(NC(=O)/C(=N\NC(=S)NN)C3C(=O)NC(=S)NC3=O)sc2c1
U251 CNS
  TGI: > 100 µM
HCT-116 colon
  TGI: > 100 µM
CAKI-1 renal
  TGI: > 100 µM
A549 NSCLC
  TGI: > 100 µM
EKVX NSCLC
  TGI: > 100 µM
KM12 colon
  TGI: > 100 µM
OVCAR-4 ovarian
  TGI: > 100 µM
SR leukemia
  TGI: > 100 µM

## C=CCN(N=O)C(=O)NCCCCC(NC(C)=O)C(=O)NCc1ccccc1 (stereo not given)
U251 CNS
  TGI: > 100 µM
CAKI-1 renal
  TGI: > 100 µM
A549 NSCLC
  TGI: > 100 µM
EKVX NSCLC
  TGI: > 100 µM
KM12 colon
  TGI: > 100 µM
OVCAR-4 ovarian
  TGI: > 100 µM

## O=C1NC(c2cccc(OCc3ccccc3)c2)Nc2ccccc21 (stereo not given)
U251 CNS
  TGI: 4.25 µM
HCT-116 colon
  TGI: 1.93 µM
CAKI-1 renal
  TGI: > 32.8 µM
A549 NSCLC
  TGI: > 49.6 µM
EKVX NSCLC
  TGI: > 54 µM
KM12 colon
  TGI: 73.9 µM
OVCAR-4 ovarian
  TGI: > 100 µM
SR leukemia
  TGI: 0.47 µM
NCI/ADR-RES ovarian
  TGI: 0.468 µM

## CC1C2CC=CC(=O)[C@@]2(C)CCC12OCCO2 (stereo not given in full)
U251 CNS
  TGI: > 100 µM
HCT-116 colon
  TGI: > 100 µM
CAKI-1 renal
  TGI: > 100 µM
A549 NSCLC
  TGI: > 100 µM
EKVX NSCLC
  TGI: > 100 µM
KM12 colon
  TGI: > 100 µM
OVCAR-4 ovarian
  TGI: > 100 µM
SR leukemia
  TGI: > 100 µM

## CC1=C([Se]CC(OC(=O)[C@@H](CO)NC(=O)OC(C)(C)C)C(=O)NCCCCCC(=O)OCc2ccccc2)C(=O)c2ccccc2C1=O (stereo not given in full)
MDA-MB-435
  GI50: 1.79 µM
  TGI: 3.49 µM
U251 CNS
  GI50: 0.94 µM
  TGI: 2.17 µM
HCT-116 colon
  GI50: 1.39 µM
  TGI: 2.73 µM
CAKI-1 renal
  GI50: 1.8 µM
  TGI: 3.32 µM
A549 NSCLC
  GI50: 1.37 µM
  TGI: 3.07 µM
EKVX NSCLC
  GI50: 1.81 µM
  TGI: 3.87 µM
KM12 colon
  GI50: 1.53 µM
  TGI: 2.9 µM
OVCAR-4 ovarian
  GI50: 1.53 µM
  TGI: 2.86 µM
SR leukemia
  GI50: 1.6 µM
  TGI: 6.55 µM

## [O-]c1c2c(nn1-c1ccc(Cl)cc1)c1ccccc1c[n+]2Cc1ccccc1
U251 CNS
  TGI: > 100 µM
HCT-116 colon
  TGI: > 100 µM
CAKI-1 renal
  TGI: > 100 µM
A549 NSCLC
  TGI: > 100 µM
EKVX NSCLC
  TGI: > 100 µM
KM12 colon
  TGI: > 100 µM
OVCAR-4 ovarian
  TGI: > 100 µM
SR leukemia
  TGI: > 100 µM

## CCN(CC)CCNc1ccc2nc(C)n3c4ccc(O)cc4c(=O)c1c23
U251 CNS
  TGI: 15.8 µM
HCT-116 colon
  TGI: 10.3 µM
CAKI-1 renal
  TGI: 3.6 µM
A549 NSCLC
  TGI: 1.25 µM
KM12 colon
  TGI: 17.4 µM
OVCAR-4 ovarian
  TGI: 3.87 µM
SR leukemia
  TGI: 1.32 µM

## CCOC(=O)C(C(O)c1ccc([N+](=O)[O-])cc1)P(=O)(OCC)OCC (stereo not given)
U251 CNS
  TGI: > 100 µM
HCT-116 colon
  TGI: > 100 µM
CAKI-1 renal
  TGI: > 100 µM
A549 NSCLC
  TGI: > 100 µM
EKVX NSCLC
  TGI: > 100 µM
KM12 colon
  TGI: > 100 µM
OVCAR-4 ovarian
  TGI: > 100 µM

## COC[C@H](C)N=CN1CCc2ccccc2C1(Cc1ccccc1)Cc1ccccc1
U251 CNS
  TGI: 26.9 µM
HCT-116 colon
  TGI: 29.7 µM
CAKI-1 renal
  TGI: 44.3 µM
A549 NSCLC
  TGI: > 100 µM
EKVX NSCLC
  TGI: 92.6 µM
KM12 colon
  TGI: 27.3 µM
OVCAR-4 ovarian
  TGI: 35.6 µM
SR leukemia
  TGI: 42 µM
